“Also recorded” adds a separate entry of the source. Like-named read-outs stand apart in the source and are kept apart here.
Columns and labels:
mice [1] = conditions: Kunming, mouse, in vivo, 0.5 h
Procedure: (§2) The neurotoxicity of the target compounds was tested using the ROT experimental model, which was divided into two dose groups, 100 and 300 mg/kg, and tested after 0.5 and 4 h of administration, respectively.
(§3) The neurotoxicity of the target compounds was determined using the ROT experimental model.
(§4) The neurotoxicity of the compounds wa s measured in mice using the rotarod test. Mice
(§5) we r e trained to stay on an accelerating rotarod (diameter, 3.2 cm) rotating at 10 rpm. Trained
(§6) animals we r e injected with the test compounds (i.p.) and neurotoxicity wa s measured as the
(§7) inability of the animal to maintain equilibrium on the rod for at least 1 min in each of the

MES-induced seizures [2] = test: animal or person; type: in vivo, Kunming mice; conditions: for ED50 (MES) / PI (TD50/ED50) MES / ED50: 0.5 h; for ED50 (MES): value (95% CI); for PI (TD50/ED50) MES: Kunming, mouse, in vivo; for ED50 / minimal effective dose: Mus musculus; for ED50: as given in the text; for minimal effective dose: ip, doses 30, 100, 300 mg/kg, read-out: MES, dose at which at least one of three animals was protected
Procedure: (§1) Pharmacological tests were performed using two experimental animal models, MES and scPTZ, which were divided into three dosage groups of 30, 100, and 300 mg/kg, and the anticonvulsant activity of the target compounds 6a–m and 9a–g, after 0.5 and 4 h of administration, respectively, were tested. Carbamazepine, which is effective in the MES model, was chosen as a positive control, and ethosuximide, which is effective in the scPTZ model, was chosen as a positive control. […]
Protection against the spread of
extension component of the seizure. […]

[3] = tested on: pentylenetetrazole-induced clonic seizures; test: animal or person; type: in vivo, Kunming mice; conditions: for ED50 (scPTZ) / PI (TD50/ED50) scPTZ / ED50: 0.5 h; for ED50 (scPTZ): value (95% CI); for PI (TD50/ED50) scPTZ: Kunming, mouse, in vivo; for ED50 / minimal effective dose: Mus musculus, sc; for ED50: as given in the text, read-out: ED50 (scPTZ); for minimal effective dose: doses 30, 100, 300 mg/kg, read-out: scPTZ, dose at which at least one of three animals was protected
Procedure: as §1
The test compound wa s
Absence of clonic spasms indicated a […]

[4] = tested on: GABA content in brain tissue; test: GABA estimation in brain tissue; type: in vivo, Wistar rats; conditions: 30 mg/kg, n = 5
Procedure: The data obtained from the experiments were analyzed and processed and plotted using GraphPad Prism 8 software.
We i g h about 0.05 g of tissue sample in a homogenizer, add 450 µL of extracting solution
to homogenize, homogenize, transfer to an EP tube, mark the liquid level scale, and heat for 2
hours at 95°C. After heating, centrifuge at 8000 × g for 10 min and remove the supernatant for
① Standard tube: Ta k e 30 µL of different concentrations of standards and add them to
the corresponding 1.5 mL EP tube. Measurement tube: Ta k e 30 µL of sample supernatant and
add it to 1.5 mL EP tube. ② Add 50 µL of buffer solution and 40 µL of Chromogenic Agent A
to each tube in step, mix we l l , and let stand at room temperature for 5 min. ③ Add 60 µL of
Chromogenic Agent B to each tube in step, mix we l l , and heat at 95°C for 10 min, then cool at
ice bath. ④ Add 200 µL of supplementary solution to each tube in step and mix well. ⑤ Ta k e
200 µL into the corresponding we l l s of the enzyme plate, and measure the OD va l u e of each

mice [5] = test: Elevated plus maze (EPM) test; type: in vivo; conditions: n = 6
Text: The EPM experiment is a method for evaluating whether experimental animals have an anxiety response. The principle is that, in the face of new things, mice will generate curiosity to explore (open arm), while they have a nature of darkness (closed arm), the conflict behavior between the two occurs between exploration and avoidance, resulting in anxiety. Anxious behavior can be evaluated by comparing the retention time of mice in the open and closed arms.
Flumazenil is a selective BZ antagonist with a chemical structure similar to that of BZs, which acts on central benzodiazepine (BZ) receptors and thus blocks the receptors without producing BZ-like effects.
The apparatus consisted of a black acrylic maze with two opposite open arms (50×10 cm) and two opposite closed arms (50×10×40 cm) disposed like a plus sign with a central square of 10 cm2. Entire maze wa s elevated 50 cm above the floor. The test consisted in placing the rat in the central square of the maze facing one closed arm and allowing it to explore during 5 min. This procedure wa s performed in a quiet and dimly illuminated room. The scores analysed we r e the time spent in open and closed arms, and the number of entries to both […]
widely used as an anxiety index (time spent in open arms relative to the time spent in open […]
and closed arms). […]

mice [6] = test: Rotarod (ROT) neurotoxicity test; conditions: for TD50 (ROT): 0.5 h, value (95% CI); for NT (neurotoxicity, ROT), dose at which at least one of three animals showed neurotoxicity: doses 100, 300 mg/kg
Procedure: as §2, §3, §4, §5, §6, §7

[7] = Rotarod (ROT) neurotoxicity test; conditions: Kunming, mouse, in vivo, intraperitoneal
Procedure: as §2, §3, §4, §5, §6, §7

mice [8] = tested on: mice; set-up: method as in doi:10.1016/j.molstruc.2025.141611; conditions: cited from earlier work; for NT (neurotoxicity, ROT): lead compound of previous study
MES-induced seizures [9] = tested on: MES-induced seizures; set-up: method as in doi:10.1016/j.molstruc.2025.141611; conditions: cited from earlier work; for MES, dose at which at least one of three animals was protected: lead compound of previous study
[10] = tested on: pentylenetetrazole-induced clonic seizures; set-up: method as in doi:10.1016/j.molstruc.2025.141611; conditions: cited from earlier work; for scPTZ, dose at which at least one of three animals was protected: lead compound of previous study

Structure (SMILES) | ED50 (MES) (MES-induced seizures [2]) | PI (TD50/ED50) MES (MES-induced seizures [2]) | ED50 (MES-induced seizures [2]) | ED50 (scPTZ) [3] | PI (TD50/ED50) scPTZ [3] | ED50 [3] | minimal effective dose ([3]; 0.5 h after administration) | minimal effective dose ([3]; 4 h after administration) | NT (neurotoxicity, ROT), dose at which at least one of three animals showed neurotoxicity (mice [6]; 0.5 h after administration) | NT (neurotoxicity, ROT), dose at which at least one of three animals showed neurotoxicity (mice [6]; 4 h after administration) | minimal effective dose (MES-induced seizures [2]; 0.5 h after administration) | minimal effective dose (MES-induced seizures [2]; 4 h after administration) | also measured
NC(=O)N1c2ccccc2C=Cc2ccccc21 [Carbamazepine, reference compound] | 11.4 mg/kg | 6.1 | 11.4 mg/kg |  |  |  |  |  |  |  |  |  | TD50 (ROT) (mice [1]): 69.3 (75.4–63.8) mg
O=C(Nc1ccc(-n2cncn2)cc1)c1cccc(F)c1 [Compound 6f, N-(4-(1H-1,2,4-triazol-1-yl)phenyl)-3-fluorobenzamide] | 13.1 mg/kg | 36.3 | 13.1 mg/kg | 19.7 mg/kg | 24.2 | 19.7 mg/kg | 30 mg/kg | 30 mg/kg | >300 mg/kg | >300 mg/kg | 30 mg/kg | 30 mg/kg | GABA content in brain tissue vs control ([4]; 2 h after administration): do not show significant differences; GABA content in brain tissue vs control ([4]; 7 d continuous administration): showed significant differences; EPM % of time in open arms vs control (mice [5]; 3 mg/kg): showed a significant difference; also recorded: showed significant differences; EPM % of time in open arms vs control (mice [5]; 6f 3 mg/kg + FMZ 5 mg/kg): also showed significant differences; EPM time in open arm vs 6f group (mice [5]; 6f 3 mg/kg + FMZ 5 mg/kg): significantly shortened the time of experimental animals in open arm; TD50 (ROT) (mice [6]): 476.7 (518.3–438.5) mg; TD50 at 0.5 h [7]: 477 mg/kg
Cc1cccc(C(=O)Nc2ccc(-n3cncn3)cc2)c1 [Compound 6l, N-(4-(1H-1,2,4-triazol-1-yl)phenyl)-3-methylbenzamide] | 9.1 mg/kg | 45.9 | 9.1 mg/kg | 19 mg/kg | 22.1 | 19 mg/kg | 30 mg/kg | 30 mg/kg | >300 mg/kg | >300 mg/kg | 30 mg/kg | 30 mg/kg | GABA content in brain tissue vs control ([4]; 2 h after administration): do not show significant differences; GABA content in brain tissue vs control ([4]; 7 d continuous administration): showed significant differences; EPM % of time in open arms vs control (mice [5]; 0.5 mg/kg): showed a significant difference; EPM % of time in open arms vs control (mice [5]; 6l 0.5 mg/kg + FMZ 5 mg/kg): did not show a significant difference; EPM time in open arm vs 6l group (mice [5]; 6l 0.5 mg/kg + FMZ 5 mg/kg): significantly shortened the time of the experimental animals in the open arm; TD50 (ROT) (mice [6]): 419.5 (456.1–385.9) mg
CCCCCCCC(=O)Nc1ccc(-n2cncn2)cc1 [Compound 9f, N-(4-(1H-1,2,4-triazol-1-yl)phenyl)octanamide] |  |  |  |  |  |  | 300 mg/kg | > 300 mg/kg | >300 mg/kg | >300 mg/kg | 100 mg/kg | 300 mg/kg | 
CCCCCCCCC(=O)Nc1ccc(-n2cncn2)cc1 [Compound 9g, N-(4-(1H-1,2,4-triazol-1-yl)phenyl)nonanamide] |  |  |  |  |  |  | 300 mg/kg | > 300 mg/kg | >300 mg/kg | >300 mg/kg | 300 mg/kg | 300 mg/kg | 
CN1C(=O)CN=C(c2ccccc2)c2cc(Cl)ccc21 [Diazepam, reference compound] |  |  |  |  |  |  |  |  |  |  |  |  | EPM % of time in open arms vs control (mice [5]; 1 mg/kg): showed a significant difference
CCC1(C)CC(=O)NC1=O (stereo not shown) [Ethosuximide, reference compound] |  |  |  | 94.4 mg/kg | 3.5 | 94.4 mg/kg |  |  |  |  |  |  | TD50 (ROT) (mice [1]): 333.7 (362.8–306.9) mg
CCOC(=O)c1ncn2c1CN(C)C(=O)c1cc(F)ccc1-2 [Flumazenil, reference compound] |  |  |  |  |  |  |  |  |  |  |  |  | EPM % of time in open arms vs control (mice [5]; 5 mg/kg, listed as FMZ): did not show significant differences; also recorded: did not show a significant difference
CCCCCOc1cc(OCCCCC)n2ncnc2n1 [I] |  |  |  |  |  |  |  |  |  |  |  |  | NT (neurotoxicity, ROT) (mice [8]; 0.5 h): >150 mg/kg; NT (neurotoxicity, ROT) (mice [8]; 4 h): >150 mg/kg; TD50 (ROT) (mice [8]; lead compound): 190.7 (207.3–175.4) mg; MES, dose at which at least one of three animals was protected (MES-induced seizures [9]; 0.5 h): 30 mg/kg; MES, dose at which at least one of three animals was protected (MES-induced seizures [9]; 4 h): 30 mg/kg; ED50 (MES) (MES-induced seizures [9]; lead compound): 11.3 (12.3–10.4) mg; PI (TD50/ED50) MES (MES-induced seizures [9]; lead compound): 16.8; scPTZ, dose at which at least one of three animals was protected ([10]; 0.5 h): 30 mg/kg; scPTZ, dose at which at least one of three animals was protected ([10]; 4 h): 30 mg/kg; ED50 (scPTZ) ([10]; lead compound): 9.5 (10.4–8.8) mg; PI (TD50/ED50) scPTZ ([10]; lead compound): 20.0

Reference: PMC12388125, “Design, Synthesis, and Pharmacological Activity of the N-(4-(1H-1,2,4-Triazol-1-yl)phenyl)-substituted-amide Derivatives” (Molecules, 2025)
